Experimental data: patent US12077503B2, “Substituted cyclic amides and their use as herbicides” (FMC CORPORATION, priority 2015, dated 2024)

Experiments:
Format in all cases: in vivo
[1] = test system: rice (Oryra sativa); test: Test B flooded paddy test; settings: Oryza sativa, Flood, 250 g ai/ha; scale of 0 to 100 where 0 is no effect and 100 is complete control; read-out: Rice plant response rating
Outline: (§1)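 Compound goes directly into floodwater once pots are flooded 3 cm above soil, targeting plants at two leaves; the water depth is then held for the test duration. Plants sit 13–15 d in a greenhouse and are rated visually, 100 denoting complete control.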

[2] = test system: sedge, umbrella (small-flower umbrella sedge, Cyperus difformis); test: Test B flooded paddy test; settings: Cyperus difformis, Flood, 250 g ai/ha; scale of 0 to 100 where 0 is no effect and 100 is complete control; read-out: Sedge, Umbrella plant response rating
Outline: as §1

[3] = test system: barnyardgrass (Echinochloa crus-galli); test: Test B flooded paddy test; settings: Echinochloa crus-galli, Flood, 250 g ai/ha; scale of 0 to 100 where 0 is no effect and 100 is complete control; read-out: Barnyardgrass plant response rating
Outline: as §1

[4] = test system: ducksalad (Heteranthera limosa); test: Test B flooded paddy test; settings: Heteranthera limosa, Flood, 250 g ai/ha; scale of 0 to 100 where 0 is no effect and 100 is complete control; read-out: Ducksalad plant response rating
Outline: as §1

[5] = test system: pigweed (Amaranthus retroflexus); test: Test A preemergence; settings: Amaranthus retroflexus, pre-emergence, 240 h, Preemergence
[6] = test system: ragweed (common ragweed, Ambrosia elatior); test: Test A preemergence; settings: Ambrosia artemisiifolia, pre-emergence, 240 h, Preemergence
Outline: (§2)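 Visual injury, scored on a 0–100 scale relative to untreated controls, was recorded about 10 d after application. Treatments were a preemergence soil spray over planted seeds or a postemergence spray on plants at the one- to two-leaf stage, 2 to 10 cm tall, all in loam soil–sand blend in the greenhouse.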

[7] = test system: Kochia (Kochia scoparia); test: Test A preemergence; settings: Bassia scoparia, pre-emergence, 240 h, Preemergence
Outline: as §2

[8] = test system: giant foxtail (Setaria faberii); test: Test A preemergence; settings: Setaria faberi, pre-emergence, 240 h, Preemergence
Outline: as §2

[9] = test system: barnyardgrass (Echinochloa crus-galli); test: Test A preemergence; settings: Echinochloa crus-galli, pre-emergence, 240 h, Preemergence
Outline: as §2

[10] = test system: ryegrass, Italian (Italian ryegrass, Lolium multiflorum); test: Test A preemergence; settings: Lolium multiflorum, pre-emergence, 240 h, Preemergence
Outline: as §2

[11] = test system: pigweed (Amaranthus retroflexus); test: Test A postemergence; settings: Amaranthus retroflexus, post-emergence, 240 h, Postemergence, read-out: Plant response rating, Pigweed
Outline: as §2

[12] = test system: blackgrass (Alopecurus myosuroides); test: Test A postemergence; settings: Alopecurus myosuroides, post-emergence, 240 h, Postemergence, read-out: Plant response rating, Blackgrass
Outline: as §2

[13] = test system: ragweed (common ragweed, Ambrosia elatior); test: Test A postemergence; settings: Ambrosia artemisiifolia, post-emergence, 240 h, Postemergence, read-out: Plant response rating, Ragweed
Outline: as §2

[14] = test system: Kochia (Kochia scoparia); test: Test A postemergence; settings: Bassia scoparia, post-emergence, 240 h, Postemergence, read-out: Plant response rating, Kochia
Outline: as §2

[15] = test system: Galium (catchweed bedstraw, Galium aparine); test: Test A postemergence; settings: Galium, post-emergence, 240 h, Postemergence, read-out: Plant response rating, Galium
Outline: as §2

[16] = test system: wheat (Triticum aestivum); test: Test A postemergence; settings: Triticum aestivum, post-emergence, 240 h, Postemergence, read-out: Plant response rating, Wheat
Outline: as §2

[17] = test system: giant foxtail (Setaria faberii); test: Test A postemergence; settings: Setaria faberi, post-emergence, 240 h, Postemergence, read-out: Plant response rating, Foxtail, Giant
Outline: as §2

[18] = test system: corn (Zea mays); test: Test A postemergence; settings: Zea mays, post-emergence, 240 h, Postemergence
Outline: as §2

[19] = test system: barnyardgrass (Echinochloa crus-galli); test: Test A postemergence; settings: Echinochloa crus-galli, post-emergence, 240 h, Postemergence, read-out: Plant response rating, Barnyardgrass
Outline: as §2

[20] = test system: ryegrass, Italian (Italian ryegrass, Lolium multiflorum); test: Test A postemergence; settings: Lolium multiflorum, post-emergence, 240 h, Postemergence, read-out: Plant response rating, Ryegrass, Italian
Outline: as §2

[21] = 125 g ai/ha, visual injury after approximately 10 d, 0 to 100 scale where 0 is no effect and 100 is complete control
[22] = 31 g ai/ha, visual injury after approx. 10 d, 0 to 100 scale, 0 no effect, 100 complete control

Compound: CC(C)Oc1cc([C@H]2CN(C)C(=O)[C@@H]2C(=O)Nc2cccc(F)c2F)cc(C(F)(F)F)c1 [Compound 972]
- pest or weed control at 250 g/ha [1]: 50%
- pest or weed control at 250 g/ha [2]: 0%
- pest or weed control at 250 g/ha [3]: 80%
- pest or weed control at 250 g/ha [4]: 85%
- pest or weed control at 125 g/ha ([5]; 125 g ai/ha, visual injury rating after approximately 10 d, read-out: Pigweed plant response rating (0 to 100 scale, 0 is no effect, 100 is complete control)): 0%
- pest or weed control at 31 g/ha ([5]; 31 g ai/ha, 0 to 100 scale (0 no effect, 100 complete control), read-out: Plant response rating, Pigweed): 0%
- pest or weed control at 125 g/ha ([6]; 125 g ai/ha, visual injury rating after approximately 10 d, read-out: Ragweed plant response rating (0 to 100 scale, 0 is no effect, 100 is complete control)): 20%
- pest or weed control at 31 g/ha ([6]; 31 g ai/ha, 0 to 100 scale (0 no effect, 100 complete control), read-out: Plant response rating, Ragweed): 0%
- pest or weed control at 125 g/ha ([7]; 125 g ai/ha, visual injury rating after approximately 10 d, read-out: Kochia plant response rating (0 to 100 scale, 0 is no effect, 100 is complete control)): 0%
- pest or weed control at 31 g/ha ([7]; 31 g ai/ha, 0 to 100 scale (0 no effect, 100 complete control), read-out: Plant response rating, Kochia): 0%
- pest or weed control at 125 g/ha ([8]; 125 g ai/ha, visual injury rating after approximately 10 d, read-out: Foxtail, Giant plant response rating (0 to 100 scale, 0 is no effect, 100 is complete control)): 80%
- pest or weed control at 31 g/ha ([8]; 31 g ai/ha, 0 to 100 scale (0 no effect, 100 complete control), read-out: Plant response rating, Foxtail, Giant): 80%
- pest or weed control at 125 g/ha ([9]; 125 g ai/ha, visual injury rating after approximately 10 d, read-out: Barnyardgrass plant response rating (0 to 100 scale, 0 is no effect, 100 is complete control)): 80%
- pest or weed control at 31 g/ha ([9]; 31 g ai/ha, 0 to 100 scale (0 no effect, 100 complete control), read-out: Plant response rating, Barnyardgrass): 70%
- pest or weed control at 125 g/ha ([10]; 125 g ai/ha, visual injury rating after approximately 10 d, read-out: Ryegrass, Italian plant response rating (0 to 100 scale, 0 is no effect, 100 is complete control)): 90%
- pest or weed control at 31 g/ha ([10]; 31 g ai/ha, 0 to 100 scale (0 no effect, 100 complete control), read-out: Plant response rating, Ryegrass, Italian): 50%
- pest or weed control at 125 g/ha [11, 21]: 30%
- pest or weed control at 31 g/ha [11, 22]: 20%
- pest or weed control at 125 g/ha [12, 21]: 0%
- pest or weed control at 31 g/ha [12, 22]: 0%
- pest or weed control at 125 g/ha [13, 21]: 30%
- pest or weed control at 31 g/ha [13, 22]: 0%
- pest or weed control at 125 g/ha [14, 21]: 0%
- pest or weed control at 31 g/ha [14, 22]: 0%
- pest or weed control at 125 g/ha [15, 21]: 30%
- pest or weed control at 31 g/ha [15, 22]: 0%
- plant injury at 125 g/ha [16, 21]: 40%
- plant injury at 31 g/ha [16, 22]: 20%
- pest or weed control at 125 g/ha [17, 21]: 60%
- pest or weed control at 31 g/ha [17, 22]: 30%
- Corn plant response rating (crop injury, 0 = no effect, 100 = complete kill) at 125 g/ha [18, 21]: 60%
- Corn plant response rating (crop injury, 0 = no effect, 100 = complete kill) at 31 g/ha [18, 22]: 20%
- pest or weed control at 125 g/ha [19, 21]: 50%
- pest or weed control at 31 g/ha [19, 22]: 50%
- pest or weed control at 125 g/ha [20, 21]: 20%
- pest or weed control at 31 g/ha [20, 22]: 0%
